B1: sTNFRSF14: Pro37-Val202 soluble HVEM ectodomain polypeptide of SEQ ID NO. 6 (protein, listed as Homo sapiens)
chain: PALPSCKEDEYPVGSECCPKCSPGYRVKEACGELTGTVCEPCPPGTYIAHLNGLSKCLQCQMCDPAMGLRASRNCSRTENAVCGCSPGHFCIVQDGDHCAACRAYATSSPGQRVQKGGTESQDTLCQNCPPGTFSPNGTLEECQHQTKCSWLVTKAGAGTSSSHWV

Assays:
[1] = system: purified human TFH cells; test: TFH stimulation: viability and cytokine expression; format: cell-based
Excerpt: FIG. 6A-I. Increased TFH cell recruitment supports to HVEM deficient lymphoma B cells. FIG. 6A, FACS identification and sorting of human GC derived TFH cells based on the markers CD3pos, CD4pos, CD25neg, PD1hi, CXCRShi, left: isotypic control; right; staining with anti-BTLA antibody; FIG. 6B and FIG. 6C, FACS measurement (FIG. 6B) and quantification (FIG. 6C) of intra-tumoral TFH cells in control and HVEM deficient murine lymphomas; FIG. 6D and FIG. 6E, qRT-PCR measurement of IL21 (FIG. 6D), and IL4 (FIG. 6E) in sorted intra-tumoral T cells (N=?); FIG. 6F, qRT-PCR measurement of the LTa, LTb, and TNFa mRNA expression in T cells isolated from the spleens of vector and shHVEM mice * p<?; G-I, qRT-PCR measurement of TNFa (FIG. 6G), LTa (FIG. 6H), and LTb (FIG. 61) in cell sorted TFH (n=4) cultured with anti-CD3/anti-CD28 Mabs in presence or not of soluble HVEM (solHVEM, 10 μg/ml), each symbol represents an independent TFH sample.
FIG. 13A-E. Analysis of TFH cell function in HVEM deficient lymphomas. FIG. 13A and FIG. 13B, qRT-PCR measurement of the receptors for IL21 (IL-21ra; A), and IL4 (IL4ra; B) in purified lymphoma B cells; FIG. 13C, Viability of purified murine TFH cells (samples: n=4) that were cultured for 3 days with or without (UN) stimulation by anti-CD3/anti-CD28 in the presence or absence of the soluble HVEM ectodomain (solHVEM: 10 μg/ml); FIG. 13D, Cell-Sorted GC-TFH cultured with anti-CD3/anti-CD28 Mabs in presence or not of solHVEM; production of CXCL13(FIG. 13E) and IL-21(FIG. 13F) evaluated by ELISA.
The stroma-derived cytokine CXCL13 is the main chemo-attractant for CXCRSpos follicular T helper cells (TFH) (Crotty, 2014). […] This increase in TFH cell numbers is associated with an elevated expression of the TFH derived cytokines. […] Further, it was observed that the increased production of IL21 and IL4 by TFH cells was matched with an elevated expression of the IL21 and IL4 receptors on FACS purified lymphoma B cells from HVEM deficient lymphomas (p<0.01) (FIGS. 13A and 13B). Human TFH cells are characterized by high-level expression of the BTLA receptor (FIG. 13C) and experiments were performed to test whether HVEM directly affected these tumor infiltrating T cells. […]
Purified TFH were cultured in IMDM 10% FCS with or without anti-CD3 (0.6 μg/mL) and anti-CD28 (0.6 m/mL, Pelicluster Sanquin) MAbs in the presence or not of solHVEM (10 μg/mL). After 3 days of culture, the number of viable TFH was evaluated by flow cytometry using count beads (Flow Count, Beckman Coulter) and Topro-3 staining (Invitrogen). CXCL13 was quantified in culture supernatants by ELISA (R&D Systems) according to manufacturer's instructions.

[2] = system: cell lines that expressed high levels of BTLA; test: Immunoblot of ERK phosphorylation in treated cell lines; format: cell-based; conditions: 5 ug/ml; cell lines with high BTLA
Procedure: FIG. 19. In vitro effect of sTNFRSF14. Immunoblots of cell lines that were treated with 5 ug/ml of sTNFRSF14. Blots were probed as indicated.
Immunoblots were performed using whole cell lysates or supernatants as previously described (Wendel et al., 2004). In brief, 30 μg protein/sample was resolved on SDS-PAGE gels and transferred to Immobilon-P membranes (Millipore). Antibodies were against, pSyk (Cell Signaling Technologies #2712), Syk (Cell Signaling Technologies #2710), pBTK (Cell Signaling Technologies #5082), BTK (Cell Signaling Technologies #3533) pERK (Cell Signaling Technologies #9102), ERK (Cell Signaling Technologies #4370) and Tubulin (Sigma-Aldrich). Enhanced chemiluminescence was used for detection (ECL; GE Healthcare).

[3] = system: myc-Bc12 lymphoma cell line; test: Cell viability by CellTiterGlo; format: cell-based, mouse; conditions: 5 ug/ml; 24 hours
Procedure: FIG. 18. sTNFRSF14 decreases cell viability in vitro. Cells of the myc-Bc12 lymphoma cell line were plated at a density of 1×10^5 cells/ml and they were treated with sTNFRSF14 (5 ug/ml) or vehicle. After 24 hours of treatment cell viability was assessed using CellTiterGlo reagent.

[4] = with or without anti-CD3/anti-CD28, solHVEM 10 μg/mL, 3 days

| Molecule | expression of LTa in TFH cells ([1]; solHVEM 10 μg/ml) | expression of LTb in TFH cells ([1]; solHVEM 10 μg/ml) | TFH cell numbers [1, 4] | TFH cell viability [1, 4] | ERK phosphorylation levels [2] | cell viability [3] |
| --- | --- | --- | --- | --- | --- | --- |
| solHVEM: Leu39-Val202 soluble HVEM ectodomain polypeptide of SEQ ID NO. 8 | reductions | reductions | did not affect | did not affect |  |  |
| B1 |  |  |  |  | clearly reduced | modest decrease |

— patent publication US11261232B2, “TNFRSF14 / HVEM proteins and methods of use thereof” (MEMORIAL SLOAN KETTERING CANCER CENTER, priority 2015, dated 2022)
